Experimental data taken from patent publication US20260258032A1, “TYROSINE KINASE 2 INHIBITORS AND USES THEREOF” (BIOGEN MA INC., priority 2022, published 2026).
pIC50: −log10 of the molar value. Counter-ions that a name gives are not always drawn.

Experiments:
[1] = target: T1, JH2 domain of human Tyk2 (Homo sapiens, UniProt P29597); assay: JH2 biochemical assay (TR-FRET probe displacement); assay type: binding
T1 construct: 10×His-tagged TYK2 JH2 domain (amino acid 575-876)
In short: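 A probe-displacement TR-FRET readout: compounds, tested in 3-fold, 10-point dilutions starting at […], compete with 2 nM tracer for 2 nM His-tagged JH2 (residues 575-876) detected by 0.1 nM Tb-anti-His over 60 min. IC50 comes from 4-parameter fits of normalized 520/495 nm ratios.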

[2] = system: Tyk2 kinase activity on STAT4; assay: pSTAT4 cell assay (MSD, NK92 cells); assay type: cell-based; details: compounds 1 hr
In short: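 Compound treatment of starved NK92 cells ran 1 hr before a 15-minute, 30 ng/mL IL2 pulse; lysates went to an MSD anti-STAT4 antibody assay, with curves fitted by 4-parameter logistic model.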

[3] = TR-FRET probe displacement, JH2 domain of human Tyk2

T1 sequence (P29597 575-876): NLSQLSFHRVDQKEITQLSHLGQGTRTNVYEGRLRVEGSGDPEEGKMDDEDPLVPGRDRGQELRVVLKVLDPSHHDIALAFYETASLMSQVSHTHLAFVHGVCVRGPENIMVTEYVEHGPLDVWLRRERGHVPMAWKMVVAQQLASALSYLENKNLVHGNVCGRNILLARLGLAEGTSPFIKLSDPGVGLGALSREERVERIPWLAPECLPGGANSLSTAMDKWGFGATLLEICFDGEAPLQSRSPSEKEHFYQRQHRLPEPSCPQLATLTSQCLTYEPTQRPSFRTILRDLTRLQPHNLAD

Row | Structure (SMILES) | pIC50 ([1]; JH2 biochemical assay) | pIC50 ([2]; stimulated 15 minutes) | pIC50 [1, 3] | pIC50 ([2]; then stimulated 15 minutes)
1 | COC1CC(COc2cc(C)cc(N3CC4(CC4)c4cnc(NC(C)=O)cc43)n2)C1 (centres unmarked) [Example 350, N-(1′-(6-((3-methoxycyclobutyl)methoxy)-4-methylpyridin-2-yl)-1′,2′-dihydrospiro[cyclopropane-1,3′-pyrrolo[3,2-c]pyridin]-6′-yl)acetamide] | 6.00 to 7.00 | ≤ 6.00 |  | 
2 | COCCn1cc(-c2cc(N3CC4(CC4)c4cnc(NC(C)=O)cc43)nc(C(C)(F)F)n2)cn1 [Example 394, N-(1′-(2-(1,1-difluoroethyl)-6-(1-(2-methoxyethyl)-1H-pyrazol-4-yl)pyrimidin-4-yl)-1′,2′-dihydrospiro[cyclopropane-1,3′-pyrrolo[3,2-c]pyridin]-6′-yl)acetamide] |  |  | ≥ 8.00 | ≥ 8.00
3 | CC(=O)Nc1cc2c(cn1)C1(CC1)CN2c1cc(C)cc(N2CCN(C)C(C(F)F)C2)n1 (centres unmarked) [Example 183, N-(1′-(6-(3-(difluoromethyl)-4-methylpiperazin-1-yl)-4-methylpyridin-2-yl)-1′,2′-dihydrospiro[cyclopropane-1,3′-pyrrolo[3,2-c]pyridin]-6′-yl)acetamide] | 6.00 to 7.00 | ≤ 6.00 |  | 
4 | CC(=O)Nc1cc2c(cn1)C1(CC1)CN2c1cc(C(C)F)nc(C(C)(F)F)n1 (centres unmarked) [Example 400, N-(1′-(2-(1,1-difluoroethyl)-6-(1-fluoroethyl)pyrimidin-4-yl)-1′,2′-dihydrospiro[cyclopropane-1,3′-pyrrolo[3,2-c]pyridin]-6′-yl)acetamide] |  |  | ≥ 8.00 | 7.00 to 8.00
5 | CC(=O)Nc1cc2c(cn1)C1(CC1)CN2c1cc(C)nc(C(C)C)n1 [Example 66, N-(1′-(2-isopropyl-6-methylpyrimidin-4-yl)-1′,2′-dihydrospiro[cyclopropane-1,3′-pyrrolo[3,2-c]pyridin]-6′-yl)acetamide] | ≥ 8.00 | 6.00 to 7.00 |  | 
6 | Cc1cc(N2CC3(CC3)c3cnc(NC(=O)N(C)C)cc32)nc(C(C)(F)F)n1 [Example 278, 3-(1′-(2-(1,1-difluoroethyl)-6-methylpyrimidin-4-yl)-1′,2′-dihydrospiro[cyclopropane-1,3′-pyrrolo[3,2-c]pyridin]-6′-yl)-1,1-dimethylurea] | 6.00 to 7.00 | ≤ 6.00 |  | 
7 | COC1(C)CC1Nc1cc(N2CC3(CC3)c3cnc(NC(C)=O)cc32)nc(C(C)(F)F)n1 (centres unmarked) [Example 173, N-(1′-(2-(1,1-difluoroethyl)-6-((2-methoxy-2-methylcyclopropyl)amino)pyrimidin-4-yl)-1′,2′-dihydrospiro[cyclopropane-1,3′-pyrrolo[3,2-c]pyridin]-6′-yl)acetamide trifluoroacetate] | ≥ 8.00 | 7.00 to 8.00 |  | 
8 | CC(=O)Nc1cc2c(cn1)C1(CC1)CN2c1cc(C)cc(OC2CCC(O)C2)n1 (centres unmarked) [Example 337, N-(1′-(6-((3-hydroxycyclopentyl)oxy)-4-methylpyridin-2-yl)-1′,2′-dihydrospiro[cyclopropane-1,3′-pyrrolo[3,2-c]pyridin]-6′-yl)acetamide trifluoroacetate] | 7.00 to 8.00 | 6.00 to 7.00 |  | 
9 | CC(=O)Nc1cc2c(cn1)C1(CC1)CN2c1cc(C)nc(OC2CC(F)(F)C2)n1 [Example 363, N-(1′-(2-(3,3-difluorocyclobutoxy)-6-methylpyrimidin-4-yl)-1′,2′-dihydrospiro[cyclopropane-1,3′-pyrrolo[3,2-c]pyridin]-6′-yl)acetamide] | 6.00 to 7.00 | ≤ 6.00 |  | 
10 | CC(=O)Nc1cc2c(cn1)C1(CC1)CN2c1cc(C)nc(C2(C)CC2)n1 [Example 69, N-(1′-(6-methyl-2-(1-methylcyclopropyl)pyrimidin-4-yl)-1′,2′-dihydrospiro[cyclopropane-1,3′-pyrrolo[3,2-c]pyridin]-6′-yl)acetamide] | ≥ 8.00 | 6.00 to 7.00 |  | 
11 | CC(=O)Nc1cc2c(cn1)C1(CC1)CN2c1cc(C)nc(N2CCCCC2)n1 [Example 113, N-(1′-(6-methyl-2-(piperidin-1-yl)pyrimidin-4-yl)-1′,2′-dihydrospiro[cyclopropane-1,3′-pyrrolo[3,2-c]pyridin]-6′-yl)acetamide] | 7.00 to 8.00 | ≤ 6.00 |  | 
12 | CC(=O)Nc1cc2c(cn1)C1(CC1)CN2c1cc(NCC(C)N(C)C)nc(C(C)(F)F)n1 (centres unmarked) [Example 180, N-(1′-(2-(1,1-difluoroethyl)-6-((2-(dimethylamino)propyl)amino)pyrimidin-4-yl)-1′,2′-dihydrospiro[cyclopropane-1,3′-pyrrolo[3,2-c]pyridin]-6′-yl)acetamide trifluoroacetate] | 7.00 to 8.00 | 6.00 to 7.00 |  | 
13 | CCn1cc(-c2nc(C)cc(N3CC4(CC4)c4cnc(NC(C)=O)cc43)n2)cn1 [Example 247, N-(1′-(2-(1-ethyl-1H-pyrazol-4-yl)-6-methylpyrimidin-4-yl)-1′,2′-dihydrospiro[cyclopropane-1,3′-pyrrolo[3,2-c]pyridin]-6′-yl)acetamide] | ≥ 8.00 | 6.00 to 7.00 |  | 
14 | COCCCc1cc(N2CC3(CC3)c3cnc(NC(C)=O)cc32)nc(C(C)(F)F)n1 [Example 326, N-(1′-(2-(1,1-difluoroethyl)-6-(3-methoxypropyl)pyrimidin-4-yl)-1′,2′-dihydrospiro[cyclopropane-1,3′-pyrrolo[3,2-c]pyridin]-6′-yl)acetamide] | ≥ 8.00 | 7.00 to 8.00 |  | 
15 | CCOCCc1cc(N2CC3(CC3)c3cnc(NC(C)=O)cc32)nc(C(C)(F)F)n1 [Example 330, N-(1′-(2-(1,1-difluoroethyl)-6-(2-ethoxyethyl)pyrimidin-4-yl)-1′,2′-dihydrospiro[cyclopropane-1,3′-pyrrolo[3,2-c]pyridin]-6′-yl)acetamide trifluoroacetate] | ≥ 8.00 | 7.00 to 8.00 |  | 
16 | CC(=O)Nc1cc2c(cn1)C1(CC1)CN2c1cc(C)nc(C2CC2)n1 [Example 54, N-(1′-(2-cyclopropyl-6-methylpyrimidin-4-yl)-1′,2′-dihydrospiro[cyclopropane-1,3′-pyrrolo[3,2-c]pyridin]-6′-yl)acetamide] | ≥ 8.00 | 6.00 to 7.00 |  | 
17 | COC1(COc2nc(C)cc(N3CC4(CC4)c4cnc(NC(C)=O)cc43)n2)CCC1 [Example 378, N-(1′-(2-((1-methoxycyclobutyl)methoxy)-6-methylpyrimidin-4-yl)-1′,2′-dihydrospiro[cyclopropane-1,3′-pyrrolo[3,2-c]pyridin]-6′-yl)acetamide] |  |  | 6.00 to 7.00 | ≤ 6.00
18 | CC(=O)Nc1cc2c(cn1)C1(CC1)CN2c1cc([C@@H]2C[C@H]2C#N)nc(C(C)(F)F)n1 (racemic) [Example 72, trans-rac-N-(1′-(6-(2-cyanocyclopropyl)-2-(1,1-difluoroethyl)pyrimidin-4-yl)-1′,2′-dihydrospiro[cyclopropane-1,3′-pyrrolo[3,2-c]pyridin]-6′-yl)acetamide or cis-rac-N-(1′-(6-(2-cyanocyclopropyl)-2-(1,1-difluoroethyl)pyrimidin-4-yl)-1′,2′-dihydrospiro[cyclopropane-1,3′-pyrrolo[3,2-c]pyridin]-6′-yl)acetamide] | ≥ 8.00 | 6.00 to 7.00 |  | 
19 | CC(=O)Nc1cc2c(cn1)C1(CC1)CN2c1cc(C(C)(F)F)nc(Cl)n1 [Example 282, N-(1′-(2-chloro-6-(1,1-difluoroethyl)pyrimidin-4-yl)-1′,2′-dihydrospiro[cyclopropane-1,3′-pyrrolo[3,2-c]pyridin]-6′-yl)acetamide] | 6.00 to 7.00 | ≤ 6.00 |  | 
20 | CC(=O)Nc1cc2c(cn1)C1(CC1)CN2c1cc(NC[C@@H]2CCO2)nc(C(C)(F)F)n1 [Example 163, (S)-N-(1′-(2-(1,1-difluoroethyl)-6-((oxetan-2-ylmethyl)amino)pyrimidin-4-yl)-1′,2′-dihydrospiro[cyclopropane-1,3′-pyrrolo[3,2-c]pyridin]-6′-yl)acetamide] | ≥ 8.00 | 7.00 to 8.00 |  | 
21 | CCn1cc(-c2cc(C)cc(N3CC4(CC4)c4cnc(NC(C)=O)cc43)n2)cn1 [Example 260, N-(1′-(6-(1-ethyl-1H-pyrazol-4-yl)-4-methylpyridin-2-yl)-1′,2′-dihydrospiro[cyclopropane-1,3′-pyrrolo[3,2-c]pyridin]-6′-yl)acetamide trifluoroacetate] | 7.00 to 8.00 | ≤ 6.00 |  | 
22 | CC(=O)Nc1cc2c(cn1)C1(CC1)CN2c1cc(C)nc(N2CC(C)(C#N)C2)n1 [Example 221, N-(1′-(2-(3-cyano-3-methylazetidin-1-yl)-6-methylpyrimidin-4-yl)-1′,2′-dihydrospiro[cyclopropane-1,3′-pyrrolo[3,2-c]pyridin]-6′-yl)acetamide] | ≥ 8.00 | 6.00 to 7.00 |  | 
23 | CC(=O)Nc1cc2c(cn1)C1(CC1)CN2c1cc(C)cc(OC2CC(C)C2)n1 (centres unmarked) [Example 347, N-(1′-(4-methyl-6-(3-methylcyclobutoxy)pyridin-2-yl)-1′,2′-dihydrospiro[cyclopropane-1,3′-pyrrolo[3,2-c]pyridin]-6′-yl)acetamide trifluoroacetate] | 6.00 to 7.00 | ≤ 6.00 |  | 
24 | CC(=O)Nc1cc2c(cn1)C1(CC1)CN2c1cc(C)cc(C(F)(F)CO)n1 [Example 290, N-(1′-(6-(1,1-difluoro-2-hydroxyethyl)-4-methylpyridin-2-yl)-1′,2′-dihydrospiro[cyclopropane-1,3′-pyrrolo[3,2-c]pyridin]-6′-yl)acetamide] | ≥ 8.00 | 7.00 to 8.00 |  | 
25 | CC(=O)Nc1cc2c(cn1)C1(CC1)CN2c1cc(C(C)(C)O)nc(C(C)(F)F)n1 [Example 399, N-(1′-(2-(1,1-difluoroethyl)-6-(2-hydroxypropan-2-yl)pyrimidin-4-yl)-1′,2′-dihydrospiro[cyclopropane-1,3′-pyrrolo[3,2-c]pyridin]-6′-yl)acetamide] |  |  | ≥ 8.00 | 7.00 to 8.00
